{"source": "patent US9187458B2", "about": "“Cyanoquinoline derivatives” (Tianjin Hemay Bio-Tech Co., LTD., priority 2010, dated 2015)"}
{"tested_on": "BT-474 cells", "experiment": "BT-474 Cell Growth Inhibition Test (SRB Assay)", "type": "cell-based, human", "details": "Homo sapiens, 70 h incubation", "method": "(§1) BT-474 Cell Growth Inhibition Test (SRB Assay)\n(§2) 1. Cell strains: BT-474 (human breast tumor cell strains);\n(§3) 2. SRB: available from Sigmaaldrich, goods number: S9012, lot number: 047K3751. SRB was reserved at the room temperature. 0.4% (w/v) of working solution was formulated with 1% of glacial acetic acid. The solution was reserved at the temperature of 4° C.; anti-tumor compounds; DMSO.\n(§4) Culture medium (90% EMEM+10% FBS+0.1 mM NEAA, reserved at 4° C.);\n(§5) 1. A plate (10 cm) of cells in logarithmic growth phase normally cultured was collected. The culture solution was sucked out. The plate was washed with 5 mL of PBS 1-2 times;\n(§6) 2. PBS was sucked out, and […] of 0.25% pancreatin was added to infiltrate the cells for 30 s;\n(§7) 3. The pancreatin was sucked out. The culture plate was pleaced in an incubator. Digestion was carried out for about 5 min at 37° C.;\n(§8) 4. 3 mL of complete culture solution was added to the culture plate to stop the digestion. The cells were carefully scoured with micropipette (1 ml) to give a uniform single cell suspension;\n(§9) 5. Cell suspension was counted. The suspension was diluted to 1×10^5/ml. The resulting suspension was developed uniformly on a plate. The plate was incubated under 5% CO2 at 37° C. overnight. In day 2, 80 μL of complete culture medium was added in each well and then 20 μL of culture solution comprising a compound was added. The mixture was incubated for 70 h under 5% CO2 at 37° C.\n(§10) 6. The culture solution was sucked out. 100 uL of TCA fixed cells which were diluted to 10% were added to each well. The plate was kept in a refrigerator for 1 h at 4° C.\n(§11) 7. TCA stationary liquid was sucked out. Each well was washed with 150 μL of ddH2O five times;\n(§12) 8. After the stationary liquid was cleansed, the plate was dried in the air at the room temperature;\n(§13) 9. 60 μL of SRB staining solution was added in each well. The well was stained for 15 min at the room temperature;\n(§14) 10. The SRB staining solution was sucked out. Each well was washed with 150 μL of 1% glacial acetic acid five times;\n(§15) 11. After the SRB staining solution was cleansed, the plate was dried in the air at the room temperature;\n(§16) 12. 100 μL of 10 mM Tris was added in each well. The plate was vibrated to dissolve out SRB;\n(§17) 13. OD values were determined at 570 nM.\n(§18) 1. Calculation of Relative Inhibition Ratio The inhibition ratio of a compound on cell growth=(PC−n)/(PC−NC)×100%\n(§19) IC50: Concentration of a compound where inhibition ratio was 50%. IC50 values were fitted with Origin7.5.", "units": {"IC50": "µM"}}
{"compound": "C#Cc1cccc(Nc2c(C#N)cnc3cc(O[C@H]4CCOC4)c(NC(=O)/C=C/CN(CCOC)CCOC)cc23)c1", "note": "[Example 191, (S,E)-N-(3-CYANO-4-(3-ETHYNYLPHENYLAMINO)-7-(TETRAHYDROFURAN-3-YL-OXY)QUINOLIN-6-YL)-4-(DIMETHOXYETHYLAMINO)-BUT-2-ENAMIDE]", "IC50": 0.39}
{"tested_on": "BT-474 cells", "experiment": "BT-474 Cell Growth Inhibition Test (SRB Assay)", "type": "cell-based, human", "details": "Homo sapiens, BT-474, 70 h, compound 1 μM, 70 h incubation, read-out: Growth Inhibition Ratio (%)", "method": "as §1, §2, §3, §4, §5, §6, §7, §8, §9, §10, §11, §12, §13, §14, §15, §16, §17, §18, §19", "units": {"inhibition at 1 µM": "%"}}
{"compound": "N#Cc1cnc2cc(O[C@H]3CCOC3)c(NC(=O)/C=C/CN(CCO)CCO)cc2c1Nc1ccc(F)c(Cl)c1", "note": "[Example 192, (S,E)-N-(3-CYANO-4-(3-CHLORO-4-FLUORO-PHENYLAMINO)-7-(TETRAHYDROFURAN-3-YL-OXY)QUINOLIN-6-YL)-4-(DIETHANOLAMINO)-BUT-2-ENAMIDE]", "inhibition at 1 µM": 85}
{"compound": "N#Cc1cnc2cc(O[C@H]3CCOC3)c(NC(=O)/C=C/CN3CCCCC3)cc2c1Nc1ccc(F)c(Cl)c1", "note": "[Example 169, (S,E)-N-(4-(3-CHLORO-4-FLUOROPHENYLAMINO)-3-CYANO-7-(TETRAHYDROFURAN-3-YL-OXY)QUINOLIN-6-YL)-4-(PIPERIDIN-1-YL)-BUT-2-ENAMIDE]", "inhibition at 1 µM": 80}
{"compound": "COCCN(C/C=C/C(=O)Nc1cc2c(Nc3ccc(OCc4ccccn4)c(Cl)c3)c(C#N)cnc2cc1O[C@H]1CCOC1)CCOC", "note": "[Example 203]", "inhibition at 1 µM": 82}
{"compound": "CN(C)C/C=C/C(=O)Nc1cc2c(Nc3ccc(OCc4ccccc4C#N)c(Cl)c3)c(C#N)cnc2cc1O[C@H]1CCOC1", "note": "[Example 162, (S,E)-N-(4-(4-(2-CYANOBENZYLOXY)-3-CHLOROPHENYLAMINO)-3-CYANO-7-(TETRAHYDROFURAN-3-YL-OXY)QUINOLIN-6-YL)-4-(DIMETHYLAMINO)-BUT-2-ENAMIDE]", "inhibition at 1 µM": 80}
{"compound": "C#Cc1cccc(Nc2c(C#N)cnc3cc(O[C@H]4CCOC4)c(NC(=O)/C=C/CNCc4ccccc4)cc23)c1", "note": "[Example 147, (S,E)-N-(3-CYANO-4-(3-ETHYNYLPHENYLAMINO)-7-(TETRAHYDROFURAN-3-YL-OXY)QUINOLIN-6-YL)-4-(BENZYLAMINO)-BUT-2-ENAMIDE]", "inhibition at 1 µM": 75}
{"compound": "CCN(CC)C/C=C/C(=O)Nc1cc2c(Nc3ccc(OCc4cccc(F)c4)c(Cl)c3)c(C#N)cnc2cc1O[C@H]1CCOC1", "note": "[Example 171, (S,E)-N-(4-(4-(3-FLUOROBENZYLOXY)-3-CHLOROPHENYLAMINO)-3-CYANO-7-(TETRAHYDROFURAN-3-YL-OXY)QUINOLIN-6-YL)-4-(DIETHYLAMINO)-BUT-2-ENAMIDE]", "inhibition at 1 µM": 84}
{"compound": "CN(C)C/C=C/C(=O)Nc1cc2c(Nc3cccc(Br)c3)c(C#N)cnc2cc1O[C@H]1CCOC1", "note": "[Example 156, (S,E)-N-(4-(3-BROMOPHENYLAMINO)-3-CYANO-7-(TETRAHYDROFURAN-3-YL-OXY)QUINOLIN-6-YL)-4-(DIMETHYLAMINO)-BUT-2-ENAMIDE]", "inhibition at 1 µM": 70}
{"compound": "N#Cc1cnc2cc(O[C@H]3CCOC3)c(NC(=O)/C=C/CN3CCCCC3)cc2c1Nc1ccc(OCc2cccc(F)c2)c(Cl)c1", "note": "[Example 172, (S,E)-N-(4-(4-(3-FLUOROBENZYLOXY)-3-CHLOROPHENYLAMINO)-3-CYANO-7-(TETRAHYDROFURAN-3-YL-OXY)QUINOLIN-6-YL)-4-(PIPERIDIN-1-YL)-BUT-2-ENAMIDE]", "inhibition at 1 µM": 62}
{"tested_on": "BT-474 cells", "experiment": "BT-474 Cell Growth Inhibition Test (SRB Assay)", "type": "cell-based, human", "details": "compound 1 μM, 70 h incubation", "method": "as §1, §2, §3, §4, §5, §6, §7, §8, §9, §10, §11, §12, §13, §14, §15, §16, §17, §18, §19", "units": {"Growth Inhibition Ratio (%)": "%"}}
{"compound": "CCN(CC)C/C=C/C(=O)Nc1cc2c(Nc3ccc(OCc4ccccn4)c(Cl)c3)c(C#N)cnc2cc1O[C@H]1CCOC1", "note": "[Example 184, (S,E/Z)-N-(4-(3-CHLORO-4-(PYRIDIN-2-YL-METHOXY)PHENYLAMINO)-3-CYANO-7-(TETRAHYDROFURAN-3-YL-OXY)QUINOLIN-6-YL)-4-(DIETHYLAMINO)-BUT-2-ENAMIDE]", "Growth Inhibition Ratio (%)": 83}
{"compound": "N#Cc1cnc2cc(O[C@H]3CCOC3)c(NC(=O)/C=C/CN3CCOCC3)cc2c1Nc1ccc(OCc2ccccn2)c(Cl)c1", "note": "[Example 186, (S,E/Z)-N-(4-(3-CHLORO-4-(PYRIDIN-2-YL-METHOXY)PHENYLAMINO)-3-CYANO-7-(TETRAHYDROFURAN-3-YL-OXY)QUINOLIN-6-YL)-4-(MORPHOLIN-4-YL)-BUT-2-ENAMIDE]", "Growth Inhibition Ratio (%)": 80}
